Source: the RepoRT retention time repository

Test: Waters ACQUITY UPLC BEH C18, 100 × 2.1 mm, 1.7 µm, 40 °C, 0.3 to 0.4 mL/min, estimated dead time 0.63 min; A: water + 0.1% formic acid; B: methanol + 0.1% formic acid; gradient (min/%B) 0/0.5 0.1/0.5 10/80 10.1/99.5 12/99.5
Settings: stereoisomer not certain

| Structure (SMILES) | LC retention time |
| --- | --- |
| CC1OC(OC2CCC3(C)C(CCC4(C)C3C=CC35OCC6(CCC(C)(C)CC63)C(O)CC45C)C2(C)CO)C(O)C(OC2OC(CO)C(O)C(O)C2O)C1O (configuration not stated) | 8.25 min |
| CCCCCC(=O)OC1C(CO)OC(OC2(CO)OC(CO)C(OC(C)=O)C2O)C(OC(=O)CCCCC)C1OC(=O)CCCCC (configuration not stated) | 9.97 min |
| CC(C)=CCCC(C)(O)C1CCC2(C)C1C(O)CC1C3(C)CCC(O)C(C)(C)C3C(OC3OC(CO)C(O)C(O)C3OC3OC(CO)C(O)C(O)C3O)CC12C (configuration not stated) | 5.94 min |
| Cc1nccc2c1[nH]c1ccccc12 | 3.7 min |
| COC1C(O)C(OC2C(OC3C(OC4CCC5(C)C(CCC6(C)C5CC=C5C7CC(C)(C)CC(O)C7(C)CCC56C)C4(C)CO)OC(C(=O)O)C(O)C3O)OC(C(=O)O)C(O)C2O)OC(CO)C1OC(C)=O (configuration not stated) | 7.33 min |
| C=CC1C(OC2OC(CO)C(O)C(O)C2O)OC=C(C(=O)O)C1Cc1nccc2c1[nH]c1ccccc12 (configuration not stated) | 3.72 min |
| C=CC1C2=CCOC(=O)C2=COC1OC1OC(CO)C(O)C(O)C1O (configuration not stated) | 3.44 min |
| CC(CCC1(O)OC2CC3C4CC=C5CC(O)CCC5(C)C4CCC3(C)C2C1C)COC1OC(CO)C(O)C(O)C1O (configuration not stated) | 6.58 min |
| COC(=O)C1CC23CCC[N+]4([O-])CCC5(c6ccccc6NC15CC2)C34 (configuration not stated) | 4.18 min |
| CC(=O)OC1CC(C)CNC12OC1CC3C4CCC5CC(OC6OC(CO)C(OC7OC(CO)C(O)C(OC8OCC(O)C(O)C8O)C7OC7OC(CO)C(O)C(O)C7O)C(O)C6O)CCC5(C)C4CCC3(C)C1C2C (configuration not stated) | 4.78 min |
| CC(CN)CCC1(O)OC2CC3C4CCC5CC(OC6OC(CO)C(OC7OC(CO)C(O)C(OC8OCC(O)C(O)C8O)C7OC7OC(CO)C(O)C(O)C7O)C(O)C6O)CCC5(C)C4CCC3(C)C2C1C (configuration not stated) | 4.31 min |
| O=C1CC2OCC=C3CN4CCC56c7ccccc7N1C5C2C3CC46 (configuration not stated) | 3.46 min |
| NC(CCC(=O)NC(CS)C(=O)NCC(=O)O)C(=O)O (configuration not stated) | 1.52 min |
| CC(C)=CCCC(C)(OC1OC(CO)C(O)C(O)C1O)C1CCC2(C)C1C(O)CC1C3(C)CCC(O)C(C)(C)C3CCC12C (configuration not stated) | 9.51 min |
| CC(N)C(=O)NC(Cc1ccccc1)C(=O)O (configuration not stated) | 2.84 min |
| COc1c2c(cc3c1OCO3)CCN(C)C2 | 3.33 min |
| CC1CNC2C(C)C3C(CC4C5CCC6CC(OC7OC(CO)C(OC8OC(CO)C(O)C(OC9OCC(O)C(O)C9O)C8OC8OC(CO)C(O)C(O)C8O)C(O)C7O)CCC6(C)C5CCC43C)OC2(O)C1 (configuration not stated) | 4.02 min |
| CC1=C(O)C(=O)CC(OC2CC(C)(C)CC3C4=CCC5C6(C)CCC(OC7OC(C(=O)O)C(O)C(O)C7OC7OCC(O)C(O)C7OC7OC(C)C(O)C(O)C7O)C(C)(CO)C6CCC5(C)C4(C)CCC23C)O1 (configuration not stated) | 7.79 min |
| Cc1ncc(COC2OC(CO)C(O)C(O)C2O)c(CO)c1O (configuration not stated) | 1.7 min |
| CC1CCC2(NC1)OC1CC3C4CC=C5CC(OC6OC(CO)C(O)C(OC7OC(CO)C(O)C(O)C7O)C6OC6OC(C)C(O)C(O)C6O)CCC5(C)C4CCC3(C)C1C2C (configuration not stated) | 4.62 min |
| CC(C)C(O)(CC(=O)O)C(=O)O (configuration not stated) | 3.25 min |
| CC(CSCC(NC(=O)CCC(N)C(=O)O)C(=O)NCC(=O)O)C(=O)O (configuration not stated) | 2.36 min |
| CC1(C)CC(O)C2(C)CCC3(C)C(=CCC4C5(C)CCC(OC6OC(C(=O)O)C(O)C(O)C6OC6OC(CO)C(O)C(O)C6OC6OCC(O)C(O)C6O)C(C)(CO)C5CCC43C)C2C1 (configuration not stated) | 5.73 min |
| CCC1CN2CCc3cc(OC)c(OC)cc3C2CC1CC1NCCc2cc(O)c(OC)cc21 (configuration not stated) | 2.98 min |
| COc1ccc2cc1Oc1ccc(cc1)CC1c3cc(c(OC)cc3CCN1C)Oc1c(OC)c(OC)c(OC)c3c1C(C2)N(C)CC3 (configuration not stated) | 4.41 min |

| Structure (SMILES) | LC retention time |
| --- | --- |
| CS(=O)CCCCCCCCN (configuration not stated) | 2.49 min |
| CC=C1CN2CCC34C(=C(C=O)C1CC23)Nc1c(O)cccc14 (configuration not stated) | 3.38 min |
| O=c1[nH]c(=O)c2[nH]cnc2[nH]1 | 1.75 min |
| CC(=O)N1CC(C)CCC12OC1CC3C4CC=C5CC(O)CCC5(C)C4CCC3(C)C1C2C (configuration not stated) | 7.36 min |
| OCC1OC(OCC2OC(OCC3OC(OC4(CO)OC(CO)C(O)C4O)C(O)C(O)C3O)C(O)C(O)C2O)C(O)C(O)C1O (configuration not stated) | 1.69 min |
| NC(C(=O)O)c1ccccc1 (configuration not stated) | 2 min |
| CCC1C2CCN3CCC4(C(=C2C(=O)OC)Nc2ccccc24)C13 (configuration not stated) | 4.92 min |
| COC(=O)C12CC3CC(C(C)O)C1N(CCc1c2[nH]c2ccc(OC)cc12)C3 (configuration not stated) | 4.61 min |
| COC(=O)CC(OC(=O)C=Cc1cc(OC)c(O)c(OC)c1)C(=O)OC (configuration not stated) | 3.28 min |
| CC(C)C(O)(C(=O)OCC1CC[N+]2([O-])CCCC12)C(C)O (configuration not stated) | 3.11 min |
| c1ccc2c(c1)[nH]c1cnccc12 | 3.48 min |
| COc1cc2c3c(c1OC)-c1cc4c(cc1CC3N(C)CC2)OCO4 (configuration not stated) | 4.89 min |
| CC(=O)NC(CC(C)C)C(=O)O (configuration not stated) | 3.81 min |
| CC(C)CC(N)C(=O)NC(Cc1ccccc1)C(=O)O (configuration not stated) | 3.64 min |
| O=C(O)C1C(O)CCC2CN3CCc4c([nH]c5ccccc45)C3CC21 (configuration not stated) | 3.82 min |
| COc1ccc(CC2c3cc(OC)c(OC)cc3CCN2C)cc1OC (configuration not stated) | 4.26 min |
| C=C(C)C1CNC(C(=O)O)C1CC(=O)O (configuration not stated) | 2.44 min |
| CC(CCC1(O)OC2CC3C4CC=C5CC(OC6OC(CO)C(O)C(OC7OC(CO)C(O)C(O)C7O)C6OC6OC(C)C(O)C(O)C6O)CCC5(C)C4CCC3(C)C2C1C)COC1OC(CO)C(O)C(O)C1O (configuration not stated) | 4.99 min |
| CC1OC(OC2C(OC3C(OC4CCC5(C)C(CCC6(C)C5CC=C5C7CC(C)(C)CC(OC(=O)CC(=O)O)C7(C)CCC56C)C4(C)CO)OC(C(=O)O)C(O)C3O)OC(CO)C(O)C2O)C(O)C(O)C1O (configuration not stated) | 6.73 min |
| CC(C)=CCCC(C)(OC1OC(COC2OCC(O)C(O)C2O)C(O)C(O)C1O)C1CCC2(C)C1C(O)CC1C3(C)CCC(O)C(C)(C)C3C(O)CC12C (configuration not stated) | 6.11 min |
| O=C(O)C1CCCN1C(=O)C1CCCN1 (configuration not stated) | 1.82 min |
| CC1OC(OC2C(OC3C(OC4CCC5(C)C(CCC6(C)C5CC=C5C7CC(C)(C)CC(=O)C7(C)CCC56C)C4(C)CO)OC(C(=O)O)C(O)C3O)OC(CO)C(O)C2O)C(O)C(O)C1O (configuration not stated) | 7.62 min |
| COc1ccc(C=Cc2cc(OC)cc(OC)c2)cc1 | 9.6 min |
| CC(C)=CCC=C(C)C1CCC2(C)C1C(O)CC1C3(C)CCC(OC4OC(CO)C(O)C(O)C4OC4OC(CO)C(O)C(O)C4O)C(C)(C)C3CCC12C (configuration not stated) | 9.63 min |
| CC(C)CC(NC(=O)C(N)CO)C(=O)O (configuration not stated) | 2.38 min |

Now from value to compound:

| LC retention time | Structure (SMILES) |
| --- | --- |
| 4.28 min | CC1OC(OCC2OC(Oc3cc(O)c4c(c3)OC(c3ccc(O)cc3)CC4=O)C(O)C(O)C2O)C(O)C(O)C1O (configuration not stated) |
| 4.09 min | O=C1CC(c2ccc(O)c(O)c2)Oc2cc(OC3OC(CO)C(O)C(O)C3O)cc(O)c21 (configuration not stated) |
| 6.12 min | COC(=O)C1C2CC3c4[nH]c5cc(OC)ccc5c4CCN3CC2CC(OC(=O)c2cc(OC)c(OC)c(OC)c2)C1OC (configuration not stated) |
| 3.67 min | COc1cc(CC(COC2OC(CO)C(O)C(O)C2O)C(COC2OC(CO)C(O)C(O)C2O)Cc2ccc(O)c(OC)c2)ccc1O (configuration not stated) |
| 8.56 min | O=c1c(O)c(-c2ccc(O)cc2)oc2ccccc12 |
| 4 min | CC1OC(OCC2OC(Oc3c(-c4ccc(O)cc4)oc4cc(O)cc(O)c4c3=O)C(O)C(O)C2O)C(O)C(O)C1O (configuration not stated) |
| 4.48 min | CC1OC(OC2C(c3c(O)cc4oc(-c5ccc(O)c(O)c5)cc(=O)c4c3O)OC(CO)C(O)C2O)C(O)C(O)C1O (configuration not stated) |
| 3.1 min | O=c1cc(-c2ccc(O)c(O)c2)oc2c(C3OC(CO)C(O)C(O)C3O)c(O)c(C3OC(CO)C(O)C(O)C3O)c(O)c12 (configuration not stated) |
| 4.05 min | O=C(O)C1OC(OC2C(Oc3cc(O)c4c(=O)cc(-c5ccc(O)cc5)oc4c3)OC(C(=O)O)C(O)C2O)C(O)C(O)C1O (configuration not stated) |
| 3.56 min | O=C1c2ccc(O)cc2OCC1c1ccc(O)c(OC2OC(CO)C(O)C(O)C2O)c1 (configuration not stated) |
| 4.1 min | O=C(O)CC(=O)OCC1OC(Oc2ccc3c(=O)c(-c4ccc(O)cc4)coc3c2)C(O)C(O)C1O (configuration not stated) |
| 8.5 min | O=C1CC(c2ccccc2)Oc2ccccc21 (configuration not stated) |
| 3.95 min | O=c1cc(-c2ccc(O)cc2)oc2cc(O)c(C3OC(CO)C(O)C(O)C3O)c(O)c12 (configuration not stated) |
| 5.07 min | COc1ccc(CCC(=O)c2c(O)cc(OC3OC(CO)C(O)C(O)C3OC3OC(C)C(O)C(O)C3O)cc2O)cc1O (configuration not stated) |
| 7.75 min | CC(C)=CCc1cc(C2CC(=O)c3c(O)cc(O)cc3O2)cc(O)c1O (configuration not stated) |
| 7.63 min | COc1ccc(-c2coc3cc(O)cc(O)c3c2=O)cc1 |
| 3.87 min | COc1cc(-c2cc(=O)c3c(O)c(C4OC(CO)C(O)C(O)C4OC4OC(CO)C(O)C(O)C4O)c(O)cc3o2)ccc1O (configuration not stated) |
| 6.83 min | COc1cc(C=CC(=O)N2CCC=CC2=O)cc(OC)c1OC |
| 5.26 min | OCC(Cc1cccc(O)c1)C(CO)Cc1cccc(O)c1 (configuration not stated) |
| 4.38 min | O=c1oc2cc(OC3OC(CO)C(O)C(O)C3O)ccc2c2oc3cc(O)ccc3c12 (configuration not stated) |
| 4.91 min | Oc1ccc(C2Oc3cc(O)cc(O)c3CC2O)cc1 (configuration not stated) |
| 7.51 min | CC(C)=CCc1c(O)ccc2c1OCC(c1ccc(O)cc1O)C2=O (configuration not stated) |
| 3.88 min | O=C(O)CC(=O)OCC1OC(Oc2c(-c3cc(O)c(O)cc3O)oc3cc(O)cc(O)c3c2=O)C(O)C(O)C1O (configuration not stated) |
| 4.15 min | CC1OC(Oc2c(-c3ccc(O)c(O)c3)oc3cc(O)cc(O)c3c2=O)C(OC2OC(CO)C(O)C(O)C2O)C(O)C1O (configuration not stated) |
| 8.63 min | C=CCc1ccc(O)c(-c2ccc(O)c(CC=C)c2)c1 |
| 7.57 min | CC(C)=CCc1c(O)ccc(-c2coc3cc(O)cc(O)c3c2=O)c1O |
| 3.7 min | CC1OC(Oc2cc(O)c3c(=O)c(OC4OC(CO)C(O)C(O)C4O)c(-c4ccc(O)cc4)oc3c2)C(O)C(O)C1O (configuration not stated) |
